Measured values reported in paper PMC12192077, “Leveraging Neural ODEs for Population Pharmacokinetics of Dalbavancin in Sparse Clinical Data” (Entropy, 2025).
Where two headings read alike, the source gives them in different places.

Legend:
clinical = conditions: in vivo
Source text: The dataset used in this study was collected from a cohort of 218 patients undergoing Dalbavancin treatment and who underwent therapeutic drug monitoring (TDM) of Dalbavancin at the IRCCS, Azienda Ospedaliero Universitaria di Bologna between April 2021 and December 2024. Dalbavancin is a long-acting antibiotic used for the treatment of skin and soft tissue infections and as a second-line agent in patients with staphylococcal infections, such as bone and joint infections, vascular prosthetic joint infections and endocarditis. At our center, Dalbavancin plasma exposure is optimized by means of TDM, which is the medical practice of measuring drug concentration in plasma in order to guide drug dosing for attaining a pre-defined target of efficacy. Dalbavancin is a semisynthetic lipoglycopeptide derived from the teicoplanin-like antibiotic A-40926, which is an agent naturally produced by the actinomycete Nonomuria spp. […] The long lipophilic side chain in the Dalbavancin molecule serves a dual purpose by both extending the half-life, as well as anchoring the compound to the membrane, which enhances its antimicrobial activity.
The data acquisition process involved recording patient covariates, drug administration details and serial blood sampling for pharmacokinetic analysis. Dalbavancin doses ranged from 350mg to 1500mg , with a total of 703 administrations recorded. Blood samples were obtained at various time points following drug administration, resulting in 669 concentration measurements. Standardized laboratory procedures were followed for quantifying Dalbavancin levels in plasma, ensuring accuracy and consistency across all samples.
To ensure robust model evaluation, we employed a cross-validation approach. Given the dataset size and the need for a balance between the training and validation data, we opted for a 6-fold cross-validation framework. This choice provides a good trade-off between statistical reliability and computational efficiency, allowing each model to be trained and validated on multiple subsets of the data while maintaining a sufficient amount of training data per fold.
Since the compartment models are systems of differential equations, the replacement of these equations with an NN is direct:(2a) dCc/dt=−CcCl/V1−CcQ/V1+CpQ/V2dCp/dt=CcQ/V1−CpQ/V2 (2b) dh(t)/dt=fnn(h(t),t;θ) The differential equation systems (2a) represent a simple two-compartment model with the four parameters that need to be fitted: V1 and V2 are the volumes of the central and peripheral compartments, Cl the clearance, Q the intercompartmental clearance and Cc and Cp the concentrations of the two compartments.
In addition to the main FNN, the model includes an additional parameter, the distribution volume ( VNODE ), which is learned through gradient descent with the whole FNN. […]

[1] = in vivo; cited from earlier work

clearance (clinical; human, Cl (clearance), SD): 0.9 mL/min
Cl (clearance) (clinical; human, SD): 0.0367 ± 0.0006 L/h
VNODE (distribution volume) (clinical): 5.7 ± 0.1 L
VNODE,cov (distribution volume) (clinical; SD): 5.2 ± 0.8 L
SMILES: CN[C@H]1C(=O)N[C@@H]2Cc3ccc(cc3)Oc3cc4cc(c3O[C@@H]3O[C@H](C(=O)O)[C@@H](O)[C@H](O)[C@H]3NC(=O)CCCCCCCCC(C)C)Oc3ccc(cc3Cl)[C@@H](O)[C@@H]3NC(=O)[C@H](NC(=O)[C@@H]4NC(=O)[C@@H](NC2=O)c2cc(cc(O)c2Cl)Oc2cc1ccc2O)c1ccc(O)c(c1)-c1c(O[C@H]2O[C@H](CO)[C@@H](O)[C@H](O)[C@@H]2O)cc(O)cc1[C@@H](C(=O)NCCCN(C)C)NC3=O [Dalbavancin]
Cl (clearance) [1]: 0.031 ± 0.004 L/h
Q (intercompartmental clearance) [1]: 0.038 ± 0.013 L/h
V1 (volume of central compartment) [1]: 5.9 ± 0.3 L
V2 (volume of peripheral compartment) [1]: 9.6 ± 1.4 L
